One assay concerns Shc. In words: Tyrosine phosphorylation of Shc in PC12 cells. It is filed as cell-based, rat. Particulars: for tyrosine phosphorylation of Shc induced by agonist: DMPP 100 μM, muscarine 1 mM, NGF 100 ng/ml. Here is the method:
Tyrosine phosphorylation of Shc in response to bradykinin, carbachol, PMA and other stimuli was also measured. Quiescent PC12 cells were stimulated for 5 min at 37° C. with bradykinin (1 μM), carbachol (1 mM), KCl (75 mM), PMA (1.6 μM), NGF(100 ng/ml), or left unstimulated (−). The cells were also stimulated with carbachol (1 mM) or potassium chloride (75 mM) in the presence of 3 mM EGTA. Stimulations with DMPP (100 μM) or muscarine (1 mM) were preformed under the same conditions. […] The Shc proteins were immunoprecipitated with anti-Shc antibodies, the immunoprecipitates were resolved by SDS-PAGE (8%), transferred to nitrocellulose and immunoblotted with anti-phosphotyrosine antibodies.

Another assay deals with PYK-2. In words: Tyrosine phosphorylation of PYK-2 in NIH3T3 cells overexpressing PYK-2. The following applies: NIH3T3 cells overexpressing PYK-2 / PYK-2-HA; TPA 6 μM, 15 min, 37° C. The format is cell-based. From the text: The PYK-2 cDNA cloned in pLSV was cotransfected with pSV2neo into PC12 cells and NIH3T3 in order to establish stable cell lines. G418 resistant colonies were screened by immunoprecipitating and immunoblotting.
NIH3T3 cell lines were established that overexpress the PYK-2 and the PYK-2-HA protein. […] The level of phosphorylation is not so high.

The next assay concerns Kv1.2 potassium channel. Kind of assay: Tyrosine phosphorylation of Kv1.2 in transfected 293 cells. The format is cell-based, human. Particulars: 293 cells co-expressing Kv1.2-HA and PYK2; PMA 1.6 μM, calcium ionophore 6 μM.
A further assay concerns PYK2 and Fak. In words: Tyrosine phosphorylation of PYK2 and Fak in transfected 293 cells. The format is cell-based, human. Particulars: PMA 1.6 μM, calcium ionophore 6 μM. Here is the method: We examined the possibility whether PYK2 can tyrosine phosphorylate the Kv1.2 channel and regulate its function. In order to test this possibility, we expressed in 293 cells the Kv1.2 protein, Kv1.2 together with PYK2, and as a control Kv1.2 with a kinase negative PYK2 mutant (PKN) or with the protein tyrosine kinase Fak. The cells were grown for 24 hours in medium containing 0.2% serum and then stimulated with PMA(1.6 μM), calcium ionophore (6 μM), or left unstimulated.
Immunoblotting analysis with phosphotyrosine anti-bodies following immunoprecipitation of PYK2, PKN and Fak by specific antibodies. […] The level of expression of the kinase negative mutant of PYK2 (PKN) was similar to the expression of wild type PYK2 or FAK. […] We next analyzed the tyrosine phosphorylation of Kv1.2 channel in each cell line.
Embryonic human kidney 293 cells were transiently transfected with different combinations of mammalian expression vectors which direct the synthesis of Kv1.2-HA, PYK2, a kinase negative PYK2 (PKN) or the protein tyrosine kinase Fak. […]
Tyrosine phosphorylation of each protein was analysed following immunoprecipitation and immunoblotting with anti-phosphotyrosine antibodies. The expression of each protein was determined by immunoblot analysis of total cell lysates from each transfection with anti-PYK2, anti-HA or anti-Fak antibodies.

The next assay deals with PYK2. In words: Tyrosine phosphorylation of PYK2 in PC12 cells (immunoprecipitation, anti-phosphotyrosine immunoblot). The format is cell-based, rat. The following applies: for tyrosine phosphorylation of PYK2: quiescent PC12 cells, carbachol 1 mM, KCl 75 mM, A23187 6 μM 15 min, bradykinin 1 μM, PMA 1.6 μM. On the technique in general: A western blot detects proteins with antibodies after separation by electrophoresis.

The subject of assay [1] is Kv1.2 channel. In words: Kv1.2 currents in Xenopus oocytes (two microelectrode voltage clamp). The format is cell-based, Xenopus laevis. Here is the method: In vitro capped RNA transcripts of Kv1.2, PYK2 and PKN were synthesized from linearized plasmids DNA templates utilizing the […] mMACHINE kit (Ambion), following the supplier's protocols. The products of the transcription reaction (cRNAs) were diluted in RNAse-free water and stored at −70° C. Expression of the RNAs was done by injection of 50nl of RNA into defolliculated stage V and VI oocytes from Xenopus laevis (Iverson et al., J. Neurosc. 10, 2903-2916, 1990). The injected oocytes were incubated for 2-3 days at 20° C. in L15 solution (1:2 dilution of Gibco's Leibovitz L15 medum in H20, with 50 U/ml nystatin, 0.1 mg/ml gentamycin, 30 mM HEPES buffer, pH 7.3-7.4, filtered through a 0.45 mm membrane) Electrophysiological Recording and analysis. Ionic currents were recorded with a two microelectrode voltage-clamp as described (Iverson et al., supra). The current were low-pass filtered KHz using an 8-pole Bessel filter and stored in a 80286 microcomputer using the pclamp acquisition system (Axon Instruments). The data was analyzed with the clamp fit pro-rams of the pCIamp system (Axon Instruments). All recording were performed at room temperature ([…]). The recording chamber was continually perfused with recording solution. To avoid contamination of the oocyte by Ca+^2-activated Cl^− currents low Cl^− recording solution was used (96 mM Na+, glutamate, 2 mM K^+ glutamate, 0.5 mM CaCl2, 5 mM MgCl2, 5 mM HEPES buffer). The K+ currents were elicited in depolarizinc, steps from −100 to +40 mv in 10 mV increments every 15 seconds.
Kv1.2 currents from oocytes microinjected with either Kv1.2 mRNA, Kv1.2 and PYK2 mRNAs, or Kv1.2 and a kinase negative mutant of PYK2 mRNAs (PKN). Currents were elicited in response to depolarizing steps from −100 to +30 mV increments from a holding potential of −110 mV. Representative traces of Kv1.2 channels before and after bath application of 100 nM PMA at the annotated time (8 and 20 minutes) in the same cell.
Suppression of Kv1.2 currents in response to PMA is blocked by a kinase negative PYK2 mutant (PKN). Inhibition of Kv1.2 currents in an oocyte microinjected with Kv1.2 mRNA before and 25 minutes after treatment with PMA at 50 nM or 100 nM concentration. Recordings from an oocyte expression Kv1.2 and PYK2 or Kv1.2 and a kinase negative mutant of PYK2 under the same conditions as described above. The same protocol was utilized in both experiments.
We asked whether stimulation of PYK2 can suppress Kv1.2 currents. […] Stage V oocytes were microinjected either with Kv1.2 transcripts or with Kv1.2 together with PYK2 or PKN mRNAs. […] The expression of Kv1.2, PYK2 and PKN in the frog oocytes was confirmed by immunoblot analysis with anti-HA or anti-PYK2 antibodies.

The subject of assay [2] is Kv1.2 channel. The following applies: oocytes, after 20 min incubation; as previously shown (Huang et al.); cited from earlier work.
[3] abbreviates: PC12 cells, 37° C., TPA 1.6 μM 15 min, bradykinin 1 μM 1 min, A23187 2 μM 15 min.
Setting [4] is: PC12 cells, pertussis toxin 100 ng/ml for 20 hours.

Read-outs that look alike come from different tables or passages of the source.

`CNC1(C)C2CCC(C2)C1(C)C` (centres unmarked) [mecamylamine]: the “effect of antagonist on carbachol-induced tyrosine phosphorylation of Shc” value in the assay on Shc is listed as “blocked the effect of carbachol”.
For the compound PDGF, the “tyrosine phosphorylation of PYK-2” value in the assay on PYK-2 is listed as “undergoes tyrosine phosphorylation”.
Regarding `CN1[C@@H]2CC[C@H]1C[C@@H](OC(=O)C(CO)c1ccccc1)C2` (some centres unmarked) [atropine], the “effect of antagonist on carbachol-induced tyrosine phosphorylation of Shc” value in the assay with Shc is reported as “had no effect”.
On to NGF: nerve growth factor, for which the “tyrosine phosphorylation of Shc induced by agonist” value in the assay on Shc is given as “induced persistent stimulation of Shc phosphorylation”. Besides, in the assay with Shc (NGF), the “duration of stimulation of Shc phosphorylation after addition” value is on record as “five”.
As to `C[C@@H]1O[C@H](C[N+](C)(C)C)C[C@H]1O` [muscarine], the “tyrosine phosphorylation of Shc induced by agonist” value with Shc is “had no effect”.
Take `CNc1ccc2oc(C[C@H]3O[C@@]4(CC[C@H]3C)O[C@H]([C@H](C)C(=O)c3ccc[nH]3)[C@H](C)C[C@H]4C)nc2c1C(=O)O` [calcium ionophore A23187]: the “tyrosine phosphorylation of Kv1.2” value in the assay with Kv1.2 potassium channel is “enhanced”. Further, in the assay with PYK2 and Fak, the “tyrosine phosphorylation of PYK2 and Fak” value is “induced a weaker response”. Also, the “tyrosine phosphorylation of PYK-2 in response to the stimulus alone” value in the assay with PYK2 (setting [3]) is reported as “undergoes tyrosine phosphorylation”. In addition, the “tyrosine phosphorylation of PYK2” value with PYK2 (37° C.) is listed as “phosphorylated on tyrosine residues”.
On to Cholera toxin, for which, in the assay on PYK2, the “effect on the TPA / bradykinin PYK-2 phosphorylation response in combination” value is “gave higher signal in combination with TPA and bradykinin”; the “tyrosine phosphorylation of PYK-2 in response to the stimulus alone” value is “didn't cause phosphorylation of PYK-2 alone”.
Take `CCCCCCCCCCCCCC(=O)O[C@@H]1[C@@H](C)[C@@]2(O)[C@@H](C=C(CO)C[C@]3(O)C(=O)C(C)=C[C@@H]23)[C@@H]2C(C)(C)[C@]12OC(C)=O` [PMA, phorbol 12-myristate 13-acetate]: the “tyrosine phosphorylation of Kv1.2” value with Kv1.2 potassium channel is “enhanced”. Further, in the assay with PYK2 and Fak, the “tyrosine phosphorylation of PYK2 and Fak” value is “induced tyrosine phosphorylation”. In the assay with PYK2 (PC12 cells pretreated with 100 nM PMA for 12 h), the “agonist-induced PYK2 tyrosine phosphorylation after prolonged PMA treatment (PKC down-regulation)” value is recorded as “completely abolished the effect of PMA”. In addition, the “tyrosine phosphorylation of PYK-2 in response to the stimulus alone” value in the assay with PYK2 (setting [3]) was “undergoes tyrosine phosphorylation”. In addition, in the assay with PYK2 (PC12 cells, LPA 2.5 mM, bradykinin 1 mM 3 min, PMA 1 mM 10 min, 37° C.), the “increase in the phosphorylation state of PYK2 relative to unstimulated cells” value amounted to 12 fold. Besides, in the assay with PYK2 (37° C.), the “tyrosine phosphorylation of PYK2” value is given as “induced tyrosine phosphorylation of PYK2”. Moreover, the “inhibition of outward current” value with Kv1.2 channel [1] (oocytes coexpressing Kv1.2 and PYK2, 8 min after 100 nM PMA) was determined as 95%; in the assay on Kv1.2 channel [1] (oocytes expressing Kv1.2 alone, 8 min after 100 nM PMA), 25%. Moreover, in the assay with Kv1.2 channel [1] (oocytes treated with PMA), the “effect on Kv1.2 currents” value is “caused inhibition of Kv1.2 currents”. Also, in the assay on Kv1.2 channel [1] (oocytes, absence or presence of PYK2 expression), the “effect on kinetics and voltage dependence of remaining Kv1.2 currents” value is recorded as “did not result in changes in both the kinetics or voltage dependence of the remaining currents”. Further, the “inhibition of Kv1.2 currents” value in the assay on Kv1.2 channel [2] is 80-90%.
For the compound pertussis toxin, the “effect on the TPA / bradykinin PYK-2 phosphorylation response in combination” value with PYK2 was “induced the response of TPA and bradykinin”. Moreover, the “tyrosine phosphorylation of PYK-2 in response to the stimulus alone” value with PYK2 (setting [3]) is on record as “didn't cause any response alone”. In the assay with PYK2 (setting [4]), the “effect of pretreatment on LPA-induced tyrosine phosphorylation of PYK2” value was “significantly inhibited” and the “effect of pretreatment on bradykinin or PMA induced activation of PYK2” value was “not affected”.
For the compound `C[N+](C)(C)CCOC(N)=O` [carbachol], the “time of maximum tyrosine phosphorylation of Shc” value in the assay on Shc (1 mM carbachol time course) was “one”. For the same compound, the “dependence of agonist-induced tyrosine phosphorylation of Shc on extracellular calcium” value in the assay on Shc (3 mM EGTA) is recorded as “dependent on the presence of extracellular calcium”. Moreover, the “time after applying the agonist at which PYK2 became phosphorylated on tyrosine” value in the assay on PYK2 (PC12 cells, carbachol) was determined as 5 s. Besides, in the assay with PYK2 (37° C.), the “tyrosine phosphorylation of PYK2” value was “induces strong, tyrosine phosphorylation of PYK2”.
For the compound `C[N+]1(C)CCN(c2ccccc2)CC1.[I-]` [DMPP, 1,1-dimethyl-4-phenyl piperazinium iodide], the “tyrosine phosphorylation of Shc induced by agonist” value in the assay on Shc is “induced phosphorylation of Shc”.
For the compound `O=C(O)CN(CCOCCOCCN(CC(=O)O)CC(=O)O)CC(=O)O` [EGTA, ethyleneglycol-bis (β-aminoethyl ether)-N,N,N′N′-tetraacetic acid], the “effect on carbachol-induced tyrosine phosphorylation of PYK2” value with PYK2 (PC12 cells, EGTA 3 mM (elimination of extracellular calcium)) is “completely blocked agonist induced tyrosine phosphorylation of PYK2”. Moreover, the “effect on LPA-induced PYK2 phosphorylation” value in the assay on PYK2 (PC12 cells, medium containing 3 mM EGTA) is reported as “did not affect”.
“aFGF: growth factor used to stimulate NIH3T3 cells”: in the assay on PYK-2, the “tyrosine phosphorylation of PYK-2” value is “undergoes tyrosine phosphorylation”.
Consider “EGF: growth factor used to stimulate NIH3T3 cells”, for which the “tyrosine phosphorylation of PYK-2” value with PYK-2 is given as “undergoes tyrosine phosphorylation”.
On to `[Cl-].[K+]` [KCl, potassium chloride], for which the “agonist-induced PYK2 tyrosine phosphorylation on omission of extracellular calcium” value in the assay with PYK2 (PC12 cells, no extracellular calcium or EGTA present) is reported as “completely abolished PYK2 tyrosine phosphorylation”. In addition, in the assay on PYK2 (37° C.), the “tyrosine phosphorylation of PYK2” value was “induces rapid tyrosine phosphorylation of PYK2”.

The values are drawn from patent US20030119067A1, “PYK2 related products and methods” (Sugen, Inc., priority 1996, published 2003).
